Residue numbers refer to the chain shown, from its start. The source made the active and inactive calls. The rule behind the calls is not given here.
How the values were obtained:
[1] = tested on: T1, General amino-acid permease GAP1 (Saccharomyces cerevisiae), P19145 [T400C]; experiment: Activation of yeast Gap1 T400C mutant-mediated amino acid uptake at 10 mM
T1 sequence (whole entry): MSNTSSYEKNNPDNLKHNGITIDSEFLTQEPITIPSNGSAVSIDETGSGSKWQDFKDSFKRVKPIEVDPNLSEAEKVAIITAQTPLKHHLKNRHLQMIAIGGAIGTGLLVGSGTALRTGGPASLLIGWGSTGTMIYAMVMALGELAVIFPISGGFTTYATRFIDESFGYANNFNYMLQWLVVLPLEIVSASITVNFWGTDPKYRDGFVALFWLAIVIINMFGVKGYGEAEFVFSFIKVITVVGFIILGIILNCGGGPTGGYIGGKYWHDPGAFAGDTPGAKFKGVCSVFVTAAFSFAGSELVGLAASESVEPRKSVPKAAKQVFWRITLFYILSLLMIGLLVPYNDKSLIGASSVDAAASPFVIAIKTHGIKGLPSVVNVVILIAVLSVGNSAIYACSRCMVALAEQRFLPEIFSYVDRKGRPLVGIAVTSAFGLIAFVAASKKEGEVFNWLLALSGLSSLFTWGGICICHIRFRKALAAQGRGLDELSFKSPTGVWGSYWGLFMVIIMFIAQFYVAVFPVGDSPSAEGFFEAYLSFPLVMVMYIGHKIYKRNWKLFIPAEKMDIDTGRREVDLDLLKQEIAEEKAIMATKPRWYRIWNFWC

[2] = tested on: General amino-acid permease GAP1 (Saccharomyces cerevisiae), P19145 [V389C]; experiment: Induction of yeast Gap1 V389C mutant-mediated trehalose activation at 2 mM in presence of 10 mM MTSEA treated before compound addition
Chain of General amino-acid permease GAP1 (Saccharomyces cerevisiae), P19145 [V389C] (P19145 whole entry V389C): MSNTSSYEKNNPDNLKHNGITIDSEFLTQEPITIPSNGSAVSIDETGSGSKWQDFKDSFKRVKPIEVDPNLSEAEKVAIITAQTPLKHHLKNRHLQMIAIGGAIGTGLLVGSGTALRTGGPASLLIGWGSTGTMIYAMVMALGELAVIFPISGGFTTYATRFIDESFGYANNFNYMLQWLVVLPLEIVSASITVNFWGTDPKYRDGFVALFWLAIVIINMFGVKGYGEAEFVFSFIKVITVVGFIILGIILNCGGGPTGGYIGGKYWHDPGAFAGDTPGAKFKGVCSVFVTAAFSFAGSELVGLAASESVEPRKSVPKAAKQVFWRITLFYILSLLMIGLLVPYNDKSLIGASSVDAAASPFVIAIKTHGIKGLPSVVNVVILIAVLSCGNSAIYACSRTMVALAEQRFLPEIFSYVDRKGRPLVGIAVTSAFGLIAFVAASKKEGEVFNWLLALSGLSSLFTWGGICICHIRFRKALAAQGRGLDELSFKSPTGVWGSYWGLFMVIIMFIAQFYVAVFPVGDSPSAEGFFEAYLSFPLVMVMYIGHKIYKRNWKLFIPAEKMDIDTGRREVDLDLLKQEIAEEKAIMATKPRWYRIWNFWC

[3] = tested on: T2, General amino-acid permease GAP1 (Saccharomyces cerevisiae), P19145 [I382C]; experiment: Induction of yeast Gap1 I382C mutant-mediated trehalose activation at 2 mM in presence of 10 mM MTSEA treated before compound addition
T2 sequence (whole entry): T1 sequence (whole entry) with I382C, C400T

[4] = tested on: T2, General amino-acid permease GAP1 (Saccharomyces cerevisiae), P19145 [I382C]; experiment: Induction of yeast Gap1 I382C mutant-mediated amino acid uptake at 2 mM in presence of 10 mM MTSEA treated before compound addition
[5] = tested on: T3, General amino-acid permease GAP1 (Saccharomyces cerevisiae), P19145 [G390C]; experiment: Induction of yeast Gap1 G390C mutant-mediated trehalose activation at 10 mM
T3 sequence (whole entry): T1 sequence (whole entry) with G390C, C400T

[6] = tested on: T2, General amino-acid permease GAP1 (Saccharomyces cerevisiae), P19145 [I382C]; experiment: Induction of yeast Gap1 I382C mutant-mediated trehalose activation at 10 mM
[7] = tested on: T4, General amino-acid permease GAP1 (Saccharomyces cerevisiae), P19145 [I384C]; experiment: Induction of yeast Gap1 I384C mutant-mediated trehalose activation at 2 mM in presence of 10 mM MTSEA treated before compound addition
T4 sequence (whole entry): T1 sequence (whole entry) with I384C, C400T

[8] = tested on: General amino-acid permease GAP1 (Saccharomyces cerevisiae), P19145 [I394C]; experiment: Inhibition of yeast Gap1 I394C mutant-mediated amino acid uptake at 10 mM
Chain of General amino-acid permease GAP1 (Saccharomyces cerevisiae), P19145 [I394C] (P19145 whole entry I394C): as the sequence (P19145 whole entry V389C) above, with C389V, I394C counted along it

## NC(=O)NCCC[C@H](N)C(=O)O
[1]
  Activity: inactive
[2]
  inhibition: inactive
[3]
  inhibition: Active
[4]
  Activity: Active
[5]
  Activity: inactive
[6]
  Activity: inactive
[7]
  inhibition: Active
[8]
  inhibition: Active

Reference: ChEMBL document CHEMBL1221220, “Transport and signaling via the amino acid binding site of the yeast Gap1 amino acid transceptor” (Nat Chem Biol, 2009)
